Assay results reported in PubChem BioAssay AID296 (DTP/NCI, 2004).
“And” between values parts separate entries of the source, which are not always exact repeats. Equal values may be shown once. Records with an inconclusive call do not appear.

Tested on: MX-1 breast xenograft, nude mice, tumor weight T/C
Assay: NCI In Vivo Anticancer Drug Screen. Data for tumor model Human Mammary Carcinoma MX-1 Xenograft (intrarenal inoculation) in NU/NU Swiss (nude) mice
Conditions: endpoint: mean tumor weight change, higher = larger tumour
Method: The antitumor activity of compounds was measured in mice bearing transplantable tumors. Survival or tumor size were measured and the results are expressed as the measurement made in the treated group (T) divided by the measurement made in the vehicle treated control group (C). The tumor model used in this assay is Human Mammary Carcinoma MX-1 Xenograft (intrarenal inoculation) in NU/NU Swiss (nude) mice

[1] = dose: 300.0 mg/kg/injection, schedule: Q04DX003 (sc), vehicle: Klucel (hydroxypropylcellulose) (HPC)
[2] = dose: 75.0 mg/kg/injection, schedule: Q04DX003 (sc), vehicle: Klucel (hydroxypropylcellulose) (HPC)
[3] = dose: 150.0 mg/kg/injection, schedule: Q04DX003 (sc), vehicle: saline
[4] = dose: 300.0 mg/kg/injection, schedule: Q04DX003 (sc), vehicle: saline
[5] = dose: 300.0 mg/kg/injection, schedule: Q04DX003 (sc), vehicle: saline with Tween-80
[6] = dose: 600.0 mg/kg/injection, schedule: Q04DX003 (sc), vehicle: saline with Tween-80
[7] = dose: 1200.0 mg/kg/injection, schedule: Q04DX003 (sc), vehicle: saline with Tween-80
[8] = dose: 2400.0 mg/kg/injection, schedule: Q04DX003 (sc), vehicle: saline with Tween-80
[9] = dose: 600.0 mg/kg/injection, schedule: Q04DX003 (sc), vehicle: saline

With `Cc1cc(Nc2ccc3c(c2)OCO3)c2cc3c(cc2n1)OCO3` the T/C [1] was 61 % of control, the T/C (dose: 600.0 mg/kg/injection, schedule: Q04DX003 (sc), vehicle: Klucel (hydroxypropylcellulose) (HPC)) was 81 % of control and the T/C (dose: 1200.0 mg/kg/injection, schedule: Q04DX003 (sc), vehicle: Klucel (hydroxypropylcellulose) (HPC)) was 81 % of control. The T/C (dose: 2400.0 mg/kg/injection, schedule: Q04DX003 (sc), vehicle: Klucel (hydroxypropylcellulose) (HPC)) was 92 % of control.
In the case of `c1ccc2sc(SSN3CC4CCC(CC4)C3)nc2c1`, the T/C (dose: 200.0 mg/kg/injection, schedule: Q01DX010 (sc), vehicle: saline with Tween-80) is reported as 156 % of control and the T/C (dose: 400.0 mg/kg/injection, schedule: Q01DX010 (sc), vehicle: saline with Tween-80) is reported as 95 % of control.
For `NC(=S)c1cn(C2OC(CO)C(O)C2O)c2ncnc(N)c12` (centres undefined), the T/C (dose: 6.25 mg/kg/injection, schedule: Q04DX003 (sc), vehicle: suspension in saline) was 50 % of control and the T/C (dose: 12.5 mg/kg/injection, schedule: Q04DX003 (sc), vehicle: suspension in saline) was 9 % of control.
For `O=C(O)CSc1c(Cl)c(=O)oc2ccc(Cl)cc12`, the T/C [2] was 87 % of control, the T/C (dose: 150.0 mg/kg/injection, schedule: Q04DX003 (sc), vehicle: Klucel (hydroxypropylcellulose) (HPC)) was 61 % of control and 75 % of control and the T/C [1] was 54 % of control and 62 % of control.
With `ClCCCN1CCCCC1CCl` (centres undefined) the T/C (dose: 12.5 mg/kg/injection, schedule: Q04DX003 (sc), vehicle: saline) was 51 % of control, the T/C (dose: 25.0 mg/kg/injection, schedule: Q04DX003 (sc), vehicle: saline) was 1 % of control and the T/C (dose: 50.0 mg/kg/injection, schedule: Q04DX003 (sc), vehicle: saline) was 3 % of control.
In the case of `O=P1(NCCCl)OCCCN1CCCl` (centres undefined), the T/C [3] is reported as -95 % of control and -100 % of control and the T/C [4] is reported as -100 % of control.
With `CCOc1ccc(-c2nc3ccc(-c4nc5ccc(N6CCN(C)CC6)cc5[nH]4)cc3[nH]2)cc1` the T/C (dose: 25.0 mg/kg/injection, schedule: Q04DX003 (ip), vehicle: saline) was 96 % of control.
With `Nc1nc(=O)n(C2OC(CO)C(O)C2O)cc1F` (centres undefined) the T/C [5] was 103 % of control, the T/C [6] was 77 % of control and the T/C [7] was 81 % of control. For the same molecule, the T/C [8] was 32 % of control.
With `COC1=C(NC(C)=O)C(=O)c2nc(-c3nc(C(=O)O)c(C)c(-c4ccc(OC)c(OC)c4O)c3N)ccc2C1=O` the T/C (dose: 50.0 mg/kg/injection, schedule: Q04DX003 (sc), vehicle: Klucel (hydroxypropylcellulose) (HPC)) was 118 % of control and the T/C (dose: 100.0 mg/kg/injection, schedule: Q04DX003 (sc), vehicle: Klucel (hydroxypropylcellulose) (HPC)) was 47 % of control.
In the case of `COC(=O)c1ccoc1`, the T/C [3] is reported as 123 % of control, the T/C [4] is reported as 89 % of control and the T/C [9] is reported as 66 % of control.
In the case of `CCCCCCC(=O)CC(SCC)c1ccccc1Cl` (centres undefined), the T/C [5] is reported as 75 % of control, the T/C [6] is reported as 88 % of control and the T/C [7] is reported as 72 % of control. The T/C [8] was 96 % of control.
In the case of `O=C1C=CC(n2cc(F)c(=O)[nH]c2=O)O1` (centres undefined), the T/C [2] is reported as 104 % of control.
For `CN=C(N)N/N=C(\C)c1ccc2c(c1)Cc1cc(/C(C)=N/NC(N)=NC)ccc1-2`, the T/C (dose: 6.0 mg/kg/injection, schedule: Q04DX003 (sc), vehicle: saline with Tween-80) was 46 % of control, the T/C (dose: 12.0 mg/kg/injection, schedule: Q04DX003 (sc), vehicle: saline with Tween-80) was 84 % of control and the T/C (dose: 24.0 mg/kg/injection, schedule: Q04DX003 (sc), vehicle: saline with Tween-80) was 100 % of control. The T/C (dose: 48.0 mg/kg/injection, schedule: Q04DX003 (sc), vehicle: saline with Tween-80) was 58 % of control.
`NC(CCC(=O)NC(CS)C(=O)NCC(=O)O)C(=O)O` (centres undefined) was tested, and the T/C [4] was 87 % of control, the T/C [9] was 93 % of control and the T/C (dose: 1200.0 mg/kg/injection, schedule: Q04DX003 (sc), vehicle: saline) was 104 % of control. For the same molecule, the T/C (dose: 2400.0 mg/kg/injection, schedule: Q04DX003 (sc), vehicle: saline) was 89 % of control.
